In PubChem BioAssay (NCI) one finds GI50, TGI and outcome data, which are given here for 43 compounds.

“And” between values parts separate entries of the source, which are not always exact repeats. Equal values may be shown once.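 Dose response: 5 concentrations. Exposure: 48 h. Format: 96-well plates. Endpoint: linear interpolation; highest concentration if not reached. The concentration for 50% growth inhibition is given as GI50. Definition used: TGI = concentration required for complete inhibition of growth.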 The source made the active and inactive calls. Cut-off read from the data, not from the text of the source: active = GI50 below about 0.43 µM; inactive = the rest.

In the assay the test system is MDA-MB-468 breast. In words: growth of human tumour cells (NCI), 48 h.
As to `O=C(O)C1C2C=CC(C2)C1C(=O)O` (stereo not drawn), the GI50 is greater than 100 µM and the TGI is greater than 100 µM. `Nc1nc2c(nnn2C2OC(CO)C(O)C2O)c(=O)[nH]1` (stereo not drawn): the GI50 is 0.488 µM and the TGI is 5.37 µM.

For the compound `COc1cc(/C=C2\Oc3cc(OCCCN4CCCC4)ccc3C2=O)cc(OC)c1`, the GI50 is 2.93 µM and the TGI came to 13 µM. On to `COC(C(=O)C(O)C(C)O)C1Cc2cc3cc(OC4CC(OC5CC(O)C(O)C(C)O5)C(O)C(C)O4)c(C)c(O)c3c(O)c2C(=O)C1OC1CC(OC2CC(O)C(OC3CC(C)(O)C(O)C(C)O3)C(C)O2)C(O)C(C)O1` (stereo not drawn), for which the result was inactive. The compound `CCN(Cc1ccccc1Cl)c1ccc(CO)c(Cl)c1` displayed a TGI of 0.116 µM.

With `CC[C@@H](C(=O)[C@H](C)[C@H](O)[C@@H](C)[C@H]1O[C@H]([C@@H](CC)C(=O)O)CC[C@H]1C)C1O[C@]2(C=C[C@@H](O)[C@]3(CC[C@@](C)([C@H]4CC[C@](O)(CC)[C@H](C)O4)O3)O2)[C@H](C)C[C@@H]1C` (stereo partly drawn), the GI50 is 0.194 µM and the TGI turned out to be 1.85 µM. The corresponding values for `CC(C)(CCN=C(N)Nc1ccccn1)c1ccc(C(F)(F)F)cc1` are 7.07 µM and 22.3 µM. `Cc1cc2nc3ccc(=[N+](C)C)cc-3sc2cc1N`: the GI50 is 0.455 µM and 0.618 µM; the TGI is 2.18 µM and 3.82 µM. For the compound `CCC(C)[C@H](NC(=O)NC(=O)NC(=O)CI)C(=O)OC` (stereo partly drawn), the GI50 was 3.54 µM and the TGI was 12.6 µM.

As to `COc1cccc(-n2cc(-c3nc(Nc4cc(C)[nH]n4)c4ccccc4n3)nn2)c1`, the GI50 was 4.32 µM and the TGI is 15.7 µM. The corresponding values for `CCCCCCCCCCC/C=C\C[C@H](O)C/C=C1/C(=O)C=C[C@@H]1C/C=C\CCCC(=O)OC` are 0.864 µM and 3.76 µM.

`O=C1C(Nc2ccc(Br)cc2)=C(I)C(=O)c2ncccc21`: the GI50 is 0.97 µM and the TGI turned out to be 1.93 µM. On the same counts, the results for `CCCCCc1cc[n+](CC(=O)c2ccc([N+](=O)[O-])cc2)cc1` are 2.17 µM and 8.06 µM.

Turning to `O=c1c2cccc(F)c2sc2c(N3CCNCC3)nc3ccccc3c12`, the GI50 was 1.46 µM and the TGI turned out to be 3.1 µM. The corresponding values for `NC1CCC(Nc2nc(NCc3cc(Cl)ccc3O)c3ncn(C4CCCC4)c3n2)CC1` (stereo not drawn) are 0.158 µM and 0.468 µM. On the same counts, the results for `CN1CC[C@]2(c3cccc(O)c3)CC(=O)/C(=C/c3ccccc3)[C@H]1C2` are 2.19 µM and 6.2 µM. On to `Nc1ccccc1NC(=O)c1ccc(CN2CCC/C(=C\c3ccccn3)C2=O)cc1`, for which the GI50 is 1.33 µM and the TGI was found to be 3.88 µM.

Regarding `Cc1[nH]c(C(=O)Nc2ccccc2OC2CCNCC2)c(Cl)c1Cl`, the GI50 was 0.93 µM and the TGI was 1.9 µM. On the same counts, the results for `Clc1cc2c(nn1)Nc1ccccc1S2` are greater than 100 µM and greater than 100 µM. For the compound `CCCCCCC/C=C/[C@H]1O[C@]2(O)C(=O)C=C3C[C@@H](O[C@@H]4O[C@H](CO)[C@@H](O)C(O)[C@@H]4O)C[C@@H]3[C@H]2C=C1C` (stereo partly drawn), the GI50 is 3.42 µM and the TGI turned out to be 11.4 µM. On the same counts, the results for `CCCC[n+]1c(/C=C\c2c(OC)cc(OC)cc2OC)ccc2ccccc21` are 0.241 µM and 1.38 µM.

As for `Fc1ccc(-c2nn3c(-c4cc(C(F)(F)F)cc(C(F)(F)F)c4)nnc3s2)cc1`, the GI50 is 2.53 µM and the TGI is greater than 50 µM. The corresponding values for `CCOC(=O)c1ccc2c(c1)nc(/C=C/c1ccc(Cl)cc1)n2-c1cc(C(C)(C)C)[nH]n1` are 4.68 µM and 95.6 µM. On the same counts, the results for `C=C1CC[C@@H]2[C@](C)(COC(C)=O)[C@H](OC(C)=O)CC[C@@]2(C)[C@@H]1CC(Nc1ccc(S(=O)(=O)Nc2cc(C)on2)cc1)C1=CCOC1=O` (stereo partly drawn) are 1.49 µM and 3.29 µM. The corresponding values for `COc1ccc(-c2nn(-c3cccc(NC(=O)Nc4ccccc4)c3)cc2-c2ccncc2)cc1Cl` are 2.26 µM and 6.43 µM. Regarding `Cc1cccc2nc3cccc(C(=O)NCCNCCNCCNC(=O)c4cccc5nc6cccc(C)c6nc45)c3nc12`, the GI50 is 0.0172 µM and the TGI was found to be 1.02 µM. The corresponding values for `CC1=C(C(=O)Nc2ccc3[nH]ncc3c2)C(c2ccc(Cl)c(Cl)c2)CC(=O)N1` (stereo not drawn) are greater than 18 µM and greater than 25 µM. The corresponding values for `Nc1ccc(-c2nnc(SCc3ccc(O)c4ncccc34)o2)cc1` are 0.0387 µM and 1.16 µM. On the same counts, the results for `CN(C)CCC=C1c2ccccc2C(C)(C)c2ccccc21` are 2.59 µM and 14 µM. With `O=c1c2c(c3ccccc3n1-c1ccccc1)NC(=S)NC2c1ccc(Cl)cc1` (stereo not drawn), the GI50 was 19 µM and the TGI is greater than 100 µM.

For `C=C1CCC2C3(C)COC(c4c(OC)cccc4OC)OC3CCC2(C)C1C/C=C1/C(=O)OCC1O` (stereo not drawn), the GI50 was 1.47 µM and the TGI turned out to be 3.35 µM. For `COc1ccc(-c2nc(Nc3ccc(-c4nc5ccccc5[nH]4)cc3)nc(N3CCOCC3)n2)cc1`, the GI50 is 2.92 µM and the TGI was determined as 7.65 µM.

With `Cc1ccc(/C=C/C(=N/N=C(N)N)c2ccccc2)cc1`, the GI50 is 0.509 µM and the TGI stood at 4.13 µM. As for `c1ccc(Nc2nc(-c3ccccn3)cs2)nc1`, the GI50 is 1.13 µM and the TGI was 11.5 µM. The corresponding values for `COC(=O)c1ccc(NC2=C/C(=N/S(=O)(=O)c3ccc(C(=O)O)cc3)c3ccccc3C2=O)cc1` are 1.71 µM and 4.04 µM. On the same counts, the results for `COc1cc2nc(-c3ccc(Cl)cc3)cc(OCCCN3CCCC3)c2cc1OC` are 1.28 µM and 3.11 µM. On to `CSc1ccc2c(c1)N(CCC1CCCCN1C)c1ccccc1S2` (stereo not drawn), for which the GI50 was 1.78 µM and the TGI is 3.92 µM. Take `Clc1nc(Cl)c2c3c(sc2n1)CCCC3`: the GI50 is 2.1 µM.

For `CO[C@]12C=C/C(=C(/C(=O)OCc3cccnc3)C(=O)CCCCCCCC[C@@]3(OC)C=C/C(=C(/C(=O)OCc4cccnc4)C(=O)CCCCCCCC1)O3)O2`, the GI50 is 0.919 µM and the TGI stood at 2.3 µM. The corresponding values for `O=C(CCCCCCN1CC(=O)N2[C@@H](c3cccc(Br)c3)c3[nH]c4ccccc4c3C[C@H]2C1=O)NO` are 2.09 µM and 5.47 µM. On the same counts, the results for `CNc1cc2nc3cc(NC)c(C)cc3cc2cc1C` are 0.242 µM and 1.94 µM. As for `O=C(N=Nc1c(O)[nH]c2ccccc12)c1oc2ccccc2c1CN1CCN(c2ccccc2)CC1`, the GI50 was 1.24 µM and the TGI worked out at 3.89 µM.

On to `O=[N+]([O-])c1ccc(Sc2nc(Cl)nc(NC3CCCC3)n2)cc1`, for which the GI50 was 2.1 µM and the TGI worked out at 7.13 µM.
